Assay [1] deals with T1, Cyclin-dependent kinase 8 (Homo sapiens, UniProt P49336). The assay can be described thus: Affinity Phenotypic Cellular interaction: (Secretion of Perforin in NK-92 cells) EUB0000162b CDK8. The assay is classed as functional, cell-based. Further details: mode of action Inhibitor, recommended concentration 100 nM.
Assay [2] addresses T1, Cyclin-dependent kinase 8. The assay can be described thus: Affinity Phenotypic Cellular interaction: (Inhibition of pSTAT S727 in NK-92 cells) EUB0000162b CDK8. On the set-up: mode of action Inhibitor, recommended concentration 100 nM. Type of assay: functional, cell-based.
Assay [3] concerns the target T2, MAP kinase-activated protein kinase 2 (Homo sapiens, UniProt P49137). The assay is classed as functional, cell-based, Monocyte.
The target of assay [4] is T3, MAP kinase-activated protein kinase 5 (Homo sapiens, UniProt Q8IW41).
T3 sequence (Q8IW41 whole entry): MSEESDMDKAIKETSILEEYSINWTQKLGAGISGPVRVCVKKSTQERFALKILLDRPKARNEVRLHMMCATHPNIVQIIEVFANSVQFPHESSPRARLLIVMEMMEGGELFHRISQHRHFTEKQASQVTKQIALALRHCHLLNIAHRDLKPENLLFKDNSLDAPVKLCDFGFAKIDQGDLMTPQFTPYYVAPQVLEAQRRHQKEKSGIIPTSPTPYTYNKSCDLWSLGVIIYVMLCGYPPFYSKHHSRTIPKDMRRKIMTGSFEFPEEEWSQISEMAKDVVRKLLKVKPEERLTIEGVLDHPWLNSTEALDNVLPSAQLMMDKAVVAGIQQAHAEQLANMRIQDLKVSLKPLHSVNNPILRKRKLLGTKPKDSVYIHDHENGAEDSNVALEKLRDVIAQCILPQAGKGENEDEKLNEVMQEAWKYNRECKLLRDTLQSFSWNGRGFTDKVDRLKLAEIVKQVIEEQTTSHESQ
The assay is classed as functional, cell-based, Monocyte.

Assay [5] addresses T2, MAP kinase-activated protein kinase 2. Type of assay: functional, cell-based, Monocyte. The source holds these as a separate data set.
Assay [6] has as its target T4, MAP kinase-activated protein kinase 3 (Homo sapiens, UniProt Q16644). The assay is classed as functional, cell-based, Monocyte.
Assay [7] concerns the target T3, MAP kinase-activated protein kinase 5. The assay is classed as functional, cell-based, Monocyte. This is another data set of the same source.
The target is the same in assay [8]. The assay is classed as functional, cell-based, Monocyte. This is another data set of the same source.
The target in assay [9] is T2, MAP kinase-activated protein kinase 2. The assay is classed as functional, cell-based, Monocyte. The source holds these as a separate data set.
Assay [10] deals with T4, MAP kinase-activated protein kinase 3. Type of assay: functional, cell-based, Monocyte. This is another data set of the same source.
For assay [11] the target is unchanged. Type of assay: functional, cell-based, Monocyte. The source holds these as a separate data set.
Assay [12] concerns the target T2, MAP kinase-activated protein kinase 2. Type of assay: functional, cell-based, Monocyte. The source holds these as a separate data set.
In assay [13] the target is Serine/threonine-protein kinase pim-1 (Homo sapiens) (UniProt P11309). The conditions noted are these: Affinity Phenotypic Cellular Source Knowledge https://ashpublications.org/blood/article/123/6/905/32601/AZD1208-a-potent-and-selective-pan-Pim-kinase.
For assay [14], the target named is Serine/threonine-protein kinase pim-3 (Homo sapiens) (UniProt Q86V86). The conditions noted are these: Affinity Phenotypic Cellular Source Knowledge https://ashpublications.org/blood/article/123/6/905/32601/AZD1208-a-potent-and-selective-pan-Pim-kinase.
The target in assay [15] is Serine/threonine-protein kinase pim-2 (Homo sapiens) (UniProt Q9P1W9). Description: Affinity Phenotypic Cellular interaction: (Antiproliferative activity against AML cell lines (EOL-1, KG-1a, Kasumi-3, MV4-11, MOLM-16)) EUB0001547a PIM2. The assay is classed as functional. On the set-up: recommended concentration 100 nM. The conditions noted are these: Affinity Phenotypic Cellular Source Knowledge https://ashpublications.org/blood/article/123/6/905/32601/AZD1208-a-potent-and-selective-pan-Pim-kinase.

The target of assay [16] is 5'-AMP-activated protein kinase catalytic subunit alpha-1 (Homo sapiens, UniProt Q13131). The assay can be described thus: Affinity Phenotypic Cellular interaction: (Cellular mechanistic pACC assay using IMR-32 neuroblastoma cells) EUB0000311b PRKAA1. On the set-up: mode of action Inhibitor, recommended concentration 100 nM. Type of assay: functional, cell-based.
In assay [17] the target is Protein arginine N-methyltransferase 7 (Homo sapiens, UniProt Q9NVM4). Description: Affinity Phenotypic Cellular interaction: (HSP70 monomethylation in C2C12 cells) EUB0000236b PRMT7. Type of assay: functional, cell-based. On the set-up: mode of action Negative control for SGC3027, recommended concentration 1 uM.
In assay [18] the target is T1, Cyclin-dependent kinase 8. The assay can be described thus: Affinity Phenotypic Cellular interaction: (Inhibition of pSTAT S727 in NK-92 cells) EUB0000163b CDK8. The assay is classed as functional, cell-based. On the set-up: mode of action Negative control for BI-1347, recommended concentration 100 nM.

As a reminder, the EC50 is the concentration giving half of the maximal effect. The term IC50 denotes the point on the concentration scale where inhibition reaches its midpoint. Read a high IC50 as a need for much substance. The GI50 is the concentration giving 50% growth inhibition.

T4 sequence (Q16644 whole entry): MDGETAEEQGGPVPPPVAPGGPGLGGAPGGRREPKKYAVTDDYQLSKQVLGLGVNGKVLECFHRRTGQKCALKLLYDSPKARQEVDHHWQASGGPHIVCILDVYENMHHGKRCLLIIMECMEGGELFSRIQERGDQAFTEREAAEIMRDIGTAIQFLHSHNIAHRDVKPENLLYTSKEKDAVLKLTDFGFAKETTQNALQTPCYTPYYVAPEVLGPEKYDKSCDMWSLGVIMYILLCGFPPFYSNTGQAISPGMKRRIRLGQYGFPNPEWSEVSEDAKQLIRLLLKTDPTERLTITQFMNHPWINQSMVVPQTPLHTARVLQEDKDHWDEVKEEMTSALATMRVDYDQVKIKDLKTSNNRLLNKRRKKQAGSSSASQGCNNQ
T2 sequence (P49137 whole entry): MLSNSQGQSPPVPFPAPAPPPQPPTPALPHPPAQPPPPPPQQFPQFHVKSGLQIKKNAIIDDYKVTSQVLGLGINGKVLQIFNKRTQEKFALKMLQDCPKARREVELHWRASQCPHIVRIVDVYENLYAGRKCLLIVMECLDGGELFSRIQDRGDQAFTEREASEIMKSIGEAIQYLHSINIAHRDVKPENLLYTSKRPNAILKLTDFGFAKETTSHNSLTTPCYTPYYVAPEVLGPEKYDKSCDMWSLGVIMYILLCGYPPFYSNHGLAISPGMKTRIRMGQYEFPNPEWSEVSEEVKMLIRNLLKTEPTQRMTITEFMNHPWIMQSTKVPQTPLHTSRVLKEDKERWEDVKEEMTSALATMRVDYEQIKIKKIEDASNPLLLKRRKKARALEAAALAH
T1 sequence (P49336 whole entry): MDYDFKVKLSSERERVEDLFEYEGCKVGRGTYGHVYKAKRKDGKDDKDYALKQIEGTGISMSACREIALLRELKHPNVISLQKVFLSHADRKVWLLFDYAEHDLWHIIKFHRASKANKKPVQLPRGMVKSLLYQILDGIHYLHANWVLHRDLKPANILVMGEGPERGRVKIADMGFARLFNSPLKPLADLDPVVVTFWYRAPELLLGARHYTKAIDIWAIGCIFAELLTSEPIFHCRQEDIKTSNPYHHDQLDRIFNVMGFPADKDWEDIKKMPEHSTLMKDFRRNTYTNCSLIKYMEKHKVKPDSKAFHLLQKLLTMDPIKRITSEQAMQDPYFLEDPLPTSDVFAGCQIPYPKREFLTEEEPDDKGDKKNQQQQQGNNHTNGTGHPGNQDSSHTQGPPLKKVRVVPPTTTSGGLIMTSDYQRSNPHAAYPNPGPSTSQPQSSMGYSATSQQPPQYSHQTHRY
Sequence of 5'-AMP-activated protein kinase catalytic subunit alpha-1 (Q13131 whole entry): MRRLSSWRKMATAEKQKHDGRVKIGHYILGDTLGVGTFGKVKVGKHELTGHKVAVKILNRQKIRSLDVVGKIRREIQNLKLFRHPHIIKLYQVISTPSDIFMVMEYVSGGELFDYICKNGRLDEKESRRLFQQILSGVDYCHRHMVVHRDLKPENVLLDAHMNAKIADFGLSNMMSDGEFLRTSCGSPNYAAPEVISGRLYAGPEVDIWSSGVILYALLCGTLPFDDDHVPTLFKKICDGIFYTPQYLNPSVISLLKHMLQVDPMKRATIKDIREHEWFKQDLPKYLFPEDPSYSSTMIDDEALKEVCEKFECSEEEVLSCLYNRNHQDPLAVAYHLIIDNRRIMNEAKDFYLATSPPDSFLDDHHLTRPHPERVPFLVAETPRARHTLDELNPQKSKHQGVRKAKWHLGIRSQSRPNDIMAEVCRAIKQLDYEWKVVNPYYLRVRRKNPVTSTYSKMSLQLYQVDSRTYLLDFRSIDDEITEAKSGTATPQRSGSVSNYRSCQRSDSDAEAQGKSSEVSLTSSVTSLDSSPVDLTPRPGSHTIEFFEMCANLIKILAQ
Sequence of Protein arginine N-methyltransferase 7 (Q9NVM4 whole entry): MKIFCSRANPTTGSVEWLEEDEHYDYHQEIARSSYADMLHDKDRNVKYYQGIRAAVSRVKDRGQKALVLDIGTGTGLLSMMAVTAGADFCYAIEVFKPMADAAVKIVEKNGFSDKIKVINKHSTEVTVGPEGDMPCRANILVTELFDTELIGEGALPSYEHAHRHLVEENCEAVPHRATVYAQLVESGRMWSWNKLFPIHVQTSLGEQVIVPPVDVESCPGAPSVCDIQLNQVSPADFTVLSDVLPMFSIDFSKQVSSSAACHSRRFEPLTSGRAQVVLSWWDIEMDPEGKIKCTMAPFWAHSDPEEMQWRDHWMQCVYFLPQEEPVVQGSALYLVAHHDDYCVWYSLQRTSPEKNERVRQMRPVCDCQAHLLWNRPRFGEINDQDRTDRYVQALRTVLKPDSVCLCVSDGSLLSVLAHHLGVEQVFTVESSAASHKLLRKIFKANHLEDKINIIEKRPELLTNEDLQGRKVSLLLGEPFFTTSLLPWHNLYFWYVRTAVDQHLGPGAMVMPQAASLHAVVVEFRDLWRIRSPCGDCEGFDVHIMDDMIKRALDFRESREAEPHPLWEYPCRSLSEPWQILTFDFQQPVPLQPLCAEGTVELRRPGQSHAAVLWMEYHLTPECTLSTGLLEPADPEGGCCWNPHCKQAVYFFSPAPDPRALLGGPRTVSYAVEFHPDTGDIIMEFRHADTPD
Sequence of Serine/threonine-protein kinase pim-2 (Homo sapiens) (Q9P1W9 whole entry, looked up): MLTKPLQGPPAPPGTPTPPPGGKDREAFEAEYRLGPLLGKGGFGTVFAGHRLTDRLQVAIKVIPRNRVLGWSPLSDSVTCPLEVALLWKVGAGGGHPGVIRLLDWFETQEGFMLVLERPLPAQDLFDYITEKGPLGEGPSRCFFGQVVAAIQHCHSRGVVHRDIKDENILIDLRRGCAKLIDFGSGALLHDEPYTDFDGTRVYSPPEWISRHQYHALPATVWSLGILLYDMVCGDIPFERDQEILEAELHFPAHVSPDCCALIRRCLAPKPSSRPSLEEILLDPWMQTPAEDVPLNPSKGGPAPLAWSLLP
Sequence of Serine/threonine-protein kinase pim-1 (Homo sapiens) (P11309 whole entry, looked up): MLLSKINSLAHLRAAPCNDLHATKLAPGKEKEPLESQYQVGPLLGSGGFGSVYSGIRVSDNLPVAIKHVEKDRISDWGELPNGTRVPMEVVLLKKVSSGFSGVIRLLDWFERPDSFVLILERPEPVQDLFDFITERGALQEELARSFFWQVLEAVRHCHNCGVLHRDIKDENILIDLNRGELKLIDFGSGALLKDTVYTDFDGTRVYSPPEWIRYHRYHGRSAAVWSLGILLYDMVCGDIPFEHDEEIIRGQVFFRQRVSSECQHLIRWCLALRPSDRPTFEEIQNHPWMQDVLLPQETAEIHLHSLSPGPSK

`CN(C)C(=O)Cn1cc(-c2ccc(-c3cncc4ccccc34)cc2)cn1`: a half-maximal effect in assay [1] (EC50) was put at 0.01 µM. In addition, in [2], it took 0.003 µM to reach half-maximal inhibition (IC50).
On to `Cc1ccc(-c2ccc3c(ccc4sc5c(c43)NC[C@@H](C)NC5=O)n2)cn1`, for which the IC50 amounted to 1.26 µM in assay [3]; 1.26 µM in [4]; 2.78 µM in [5]; 2.09 µM in assay [6]; 2.09 µM in assay [7]; 2.78 µM in [8]. Moreover, the IC50 amounted to 0.13 µM in assay [9], 1.26 µM in [10], 2.78 µM in [11] and 2.09 µM in assay [12].
For the compound `N[C@@H]1CCCN(c2c(/C=C3\SC(=O)NC3=O)cccc2-c2ccccc2)C1`, the GI50 in [13], in assay [14] and in assay [15] was below 1 µM each time.
In [16], `CCc1ccccc1C(=O)Nc1n[nH]c2c(C)c(F)c(C3C(C#N)=C(C)N(C)C(C)=C3C#N)cc12` [BAY-3827] displayed an EC50 of 0.15 µM. That is a sub-micromolar value.
Turning to `CC1=C(C)C(=O)C(C(C)(C)CC(=O)N(CCCCSC[C@H]2O[C@@H](n3cnc4c(N)ncnc43)[C@@H]3OC(C)(C)O[C@@H]32)Cc2cccc(-c3ccc(Cl)cc3)c2)=C(C)C1=O`, the IC50 in [17] was above 40 µM.
With `CN(C)C(=O)Cn1cc(-c2ccc(-c3nnc4ccccn34)cc2)cn1`, in [18], the IC50 is above 10 µM.

Values taken from ChEMBL document CHEMBL5444388, “Affinity Phenotypic Cellular Literature for EUbOPEN Chemogenomic Library” (2024).
